One data set has as its system Alternaria brassicae. The experiment in a line: In vivo preventive test on Alternaria brassicae (leaf spot on radish). As to conditions: for efficacy: 500 ppm of active ingredient, radish plants sprayed 24 hours before inoculation, evaluated 6 days after inoculation; for Efficacy (Table A1) / Efficacy (Table A2): dose 500 ppm, radish, 6 days after inoculation. The method, then:
Example A: In Vivo Preventive Test on Alternaria brassicae (Leaf Spot on Radish) Solvent: 5% by volume of Dimethyl sulfoxide • 10% by volume of Acetone Emulsifier: 1 μL of TWEEN® 80 (Polyoxyethylene (20) sorbitan monooleate) per mg of active ingredient The active ingredients are made soluble and homogenized in a mixture of Dimethyl sulfoxide/Acetone/TWEEN® 80 and then diluted in water to the desired concentration. The young plants of radish are treated by spraying the active ingredient prepared as described above. Control plants are treated only with an aqueous solution of Acetone/Dimethyl sulfoxide/TWEEN® 80. After 24 hours, the plants are contaminated by spraying the leaves with an aqueous suspension of Alternaria brassicae spores. The contaminated radish plants are incubated for 6 days at 20° C. and at 100% relative humidity. The test is evaluated 6 days after the inoculation. 0% means an efficacy which corresponds to that of the control plants while an efficacy of 100% means that no disease is observed.

The subject of the next data set is Pyrenophora teres. Briefly: In vivo preventive test on Pyrenophora teres (net blotch on barley). The conditions noted are these: for efficacy: 500 ppm of active ingredient, barley plants, evaluated 14 days after inoculation; for Efficacy (Table D1): dose 500 ppm, barley. As to the method:
Example D: In Vivo Preventive Test on Pvrenophora Teres (Net Blotch on Barley) Solvent: 5% by volume of Dimethyl sulfoxide • 10% by volume of Acetone Emulsifier: 1 μL of TWEEN® 80 per mg of active ingredient The active ingredients are made soluble and homogenized in a mixture of Dimethyl sulfoxide/Acetone/TWEEN® 80 and then diluted in water to the desired concentration. The young plants of barley are treated by spraying the active ingredient prepared as described above. Control plants are treated only with an aqueous solution of Acetone/Dimethyl sulfoxide/TWEEN® 80. After 24 hours, the plants are contaminated by spraying the leaves with an aqueous suspension of Pyrenophora teres spores. The contaminated barley plants are incubated for 48 hours at 20° C. and at 100% relative humidity and then for 12 days at 20° C. and at 70-80% relative humidity. The test is evaluated 14 days after the inoculation. 0% means an efficacy which corresponds to that of the control plants while an efficacy of 100% means that no disease is observed.

A short description of data set [1]: log P by HPLC on reversed-phase column (C 18), EEC Directive 79/831 Annex V.A8. The conditions noted are these: HPLC C 18, 40° C., 0.1% aqueous formic acid and acetonitrile, gradient 10% to 90% acetonitrile. It is filed as physicochemical. The method, then: In table 1, the log P values were determined in accordance with EEC Directive 79/831 Annex V.A8 by HPLC (High Performance Liquid Chromatography) on a reversed-phase column (C 18), using the method described below: Temperature: 40° C.; Mobile phases: 0.1% aqueous formic acid and acetonitrile; linear gradient from 10% acetonitrile to 90% acetonitrile. Calibration was carried out using unbranched alkan-2-ones (comprising 3 to 16 carbon atoms) with known log P values (determination of the log P values by the retention times using linear interpolation between two successive alkanones). lambda-max-values were determined using UV-spectra from 200 nm to 400 nm and the peak values of the chromatographic signals.

The next data set has as its system Botrytis cinerea. The experiment in a line: In vivo preventive test on Botrytis cinerea (grey mould). The conditions noted are these: gherkin. As to the method: Example B: In Vivo Preventive Test Botrvtis Cinerea (Grey Mould) Solvent: 5% by volume of Dimethyl sulfoxide • 10% by volume of Acetone Emulsifier: 1 μL of TWEEN® 80 per mg of active ingredient The active ingredients are made soluble and homogenized in a mixture of Dimethyl sulfoxide/Acetone/TWEEN® 80 and then diluted in water to the desired concentration. The young plants of gherkin are treated by spraying the active ingredient prepared as described above. Control plants are treated only with an aqueous solution of Acetone/Dimethyl sulfoxide/TWEEN® 80. After 24 hours, the plants are contaminated by spraying the leaves with an aqueous suspension of Botrytis cinerea spores. The contaminated gherkin plants are incubated for 4 to 5 days at 17° C. and at 90% relative humidity. The test is evaluated 4 to 5 days after the inoculation. 0% means an efficacy which corresponds to that of the control plants while an efficacy of 100% means that no disease is observed.

The subject of another data set is Uromyces appendiculatus. Briefly: In vivo preventive test on Uromyces appendiculatus (bean rust). The method, then:
Example G: In Vivo Preventive Test on Uromvces Appendiculatus (Bean Rust) Solvent: 5% by volume of Dimethyl sulfoxide • 10% by volume of Acetone Emulsifier: 1 μL of TWEEN® 80 per mg of active ingredient The active ingredients are made soluble and homogenized in a mixture of Dimethyl sulfoxide/Acetone/TWEEN® 80 and then diluted in water to the desired concentration. The young plants of bean are treated by spraying the active ingredient prepared as described above. Control plants are treated only with an aqueous solution of Acetone/Dimethyl sulfoxide/TWEEN® 80. After 24 hours, the plants are contaminated by spraying the leaves with an aqueous suspension of Uromyces appendiculatus spores. The contaminated bean plants are incubated for 24 hours at 20° C. and at 100% relative humidity and then for 10 days at 20° C. and at 70-80% relative humidity. The test is evaluated 11 days after the inoculation. 0% means an efficacy which corresponds to that of the control plants while an efficacy of 100% means that no disease is observed.

A further data set relates to Puccinia recondita. Briefly: In vivo preventive test on Puccinia recondita (brown rust on wheat). The conditions noted are these: wheat, compounds of this patent. The method, then:
Example C: In Vivo Preventive Test on Puccinia recondita (Brown Rust on Wheat) […]
The young plants of wheat are treated by spraying the active ingredient prepared as described above. […]
After 24 hours, the plants are contaminated by spraying the leaves with an aqueous suspension of Puccinia recondita spores. The contaminated wheat plants are incubated for 24 hours at 20° C. and at 100% relative humidity and then for 10 days at 20° C. and at 70-80% relative humidity.
The test is evaluated 11 days after the inoculation. 0% means an efficacy which corresponds to that of the control plants while an efficacy of 100% means that no disease is observed.

As a reminder, the logP is the decadic logarithm of the partition coefficient of the neutral form, usually between octanol and water. A high value points to a more lipophilic compound. The term chromatographic logP denotes lipophilicity estimated from chromatographic retention. Higher therefore signals a more lipophilic compound.

As for `Cn1nc(C(F)F)c(C(=O)N(Cc2nn(-c3ccccc3)cc2-c2cccnc2)C2CC2)c1F` [CMP1, N-cyclopropyl-3-(difluoromethyl)-5-fluoro-1-methyl-N-{[1-phenyl-4-(pyridin-3-yl)-1H-pyrazol-3-yl]methyl}-1H-pyrazole-4-carboxamide, reference compound], in the data set on Alternaria brassicae, the efficacy result is on record as “no protection” and the “Efficacy (Table A1)” value is 0%.

As to `Cn1nc(C(F)F)c(C(=O)N(Cc2sc3ccccc3c2-c2cccnc2)C2CC2)c1F` [CMP4, N-cyclopropyl-3-(difluoromethyl)-5-fluoro-1-methyl-N-{[3-(pyridin-3-yl)-1-benzothiophen-2-yl]methyl}-1H-pyrazole-4-carboxamide, reference compound], the “Efficacy (Table A2)” value with Alternaria brassicae is reported as 43%.

`COc1cccc(-c2c(CN(C(=O)c3c(C(F)F)nn(C)c3F)C3CC3)sc3ccccc23)n1` [CMP5, N-cyclopropyl-3-(difluoromethyl)-5-fluoro-N-{[3-(6-methoxypyridin-2-yl)-1-benzothiophen-2-yl]methyl}-1-methyl-1H-pyrazole-4-carboxamide]: in the data set with Pyrenophora teres, the efficacy entry is “no protection” and the “Efficacy (Table D1)” value was determined as 0%. In the data set with Alternaria brassicae, the “Efficacy (Table A2)” value is given as 0%.

In the case of `Cn1nc(C(F)F)c(C(=O)N(Cc2sc3ccccc3c2-c2ccncc2)C2CC2)c1F` [CMP6, N-cyclopropyl-3-(difluoromethyl)-5-fluoro-1-methyl-N-{[3-(pyridin-4-yl)-1-benzothiophen-2-yl]methyl}-1H-pyrazole-4-carboxamide], in the data set on Pyrenophora teres, the efficacy result is recorded as “no protection” and the “Efficacy (Table D1)” value was found to be 0%.

In data set [1], `Cn1nc(C(F)F)c(C(=O)N(Cc2nn(-c3ccccc3)cc2-c2ccc3c(ccn3C)c2)C2CC2)c1F` [I.01] came in with a log partition coefficient (logP) of 4.16. For the same compound, the “Efficacy (Table A1)” value with Alternaria brassicae is given as 71%.

For `Cn1nc(C(F)F)c(C(=O)N(Cc2nn(-c3ccccc3)cc2-c2csc3ccccc23)C2CC2)c1F` [I.03], in data set [1], the lipophilicity (logP) amounted to 4.53. The “Efficacy (Table A1)” value in the data set on Alternaria brassicae is given as 93%.

In data set [1], `Cn1nc(C(F)F)c(C(=O)N(Cc2ncc(C(F)(F)F)cc2-c2coc3ccccc23)C2CC2)c1F` [I.31] returned a logP of 4.16. Also, the “Efficacy (Table B1)” value in the data set on Botrytis cinerea (dose 100 ppm) and in the data set with Botrytis cinerea (dose 500 ppm) was 100% throughout. Besides, the results for the “Efficacy (Table G1)” value with Uromyces appendiculatus (dose 100 ppm) and in the data set with Uromyces appendiculatus (dose 500 ppm) were 78% and 97%, respectively. Besides, the “Efficacy at 100 ppm (Table C1)” value in the data set on Puccinia recondita (100 ppm) came out at 88%. Besides, the “Efficacy at 500 ppm (Table C1)” value with Puccinia recondita (500 ppm) is recorded as 94%.

Turning to `Cn1nc(C(F)F)c(C(=O)N(Cc2sc3ccccc3c2-c2coc3ccccc23)C2CC2)c1F` [I.53, N-{[3-(1-benzofuran-3-yl)-1-benzothiophen-2-yl]methyl}-N-cyclopropyl-3-(difluoromethyl)-5-fluoro-1-methyl-1H-pyrazole-4-carboxamide], in data set [1] (reversed-phase HPLC column (C 18)), the chromatographic logP amounted to 4.61. Moreover, the “Efficacy (Table D1)” value with Pyrenophora teres is 83%. For the same compound, in the data set with Alternaria brassicae (listed as 1.53), the efficacy entry is recorded as “total protection”. In addition, the “Efficacy (Table A2)” value with Alternaria brassicae is 100%.

The record behind these values is patent publication US10076116B2, “N-cycloalkyl-N-(biheterocyclymethylene)-(thio)carboxamide derivatives” (BAYER CROPSCIENCE AKTIENGESELLSCHAFT, priority 2013, dated 2018).
